Test results: US9120795B2, “Crystalline form of a β-lactamase inhibitor” (Cubist Pharmaceuticals, Inc., priority 2013, dated 2015)

Assay: Solid form stability at ambient conditions, XRPD
Format: physicochemical
Conditions: sulfate; for transformation of the form at ambient conditions: storage at ambient conditions
Protocol: X-Ray Powder Diffraction patterns were collected on a Bruker D8 diffractometer using Cu Kα radiation (40 kV, 40 mA), 0-20 goniometer, and divergence of V4 and receiving slits, a Ge monochromator and a Lynxeye detector. The instrument is performance checked using a certified Corundum standard (NIST 1976). The software used for data collection was Diffrac Plus XRD Commander v2.6.1 and the data were analysed and presented using Diffrac Plus EVA v13.0.0.2 or v15.0.0.0. Samples were run under ambient conditions as flat plate specimens using powder as received. The sample was gently packed into a cavity cut into polished, zero-background (510) silicon wafer. The sample was rotated in its own plane during analysis. The details of the data collection are: angular range: 2 to 42 °2θ; step size: 0.05 °2θ; collection time: 0.5 s/step. Amorphous material (˜60 mg) was generated as in Procedure 1. The amorphous material was suspended in different solvent systems (3 mL) at 50° C. A sample was withdrawn after 3 h and 24 h. The final product was filtered after 48 h and analysed by XRPD. The solids isolated were re-analysed again by XRPD after few days at ambient conditions (˜25° C. and ˜40% RH).

| SMILES | transformation of the form at ambient conditions | stability of the form (Summary of Forms, Description) |
| --- | --- | --- |
| O=C1N2C[C@@H](CC[C@H]2c2nnco2)N1OS(=O)(=O)[O-].[Na+] [Hydrate 4, sodium (2S,5R)-2-(1,3,4-oxadiazol-2-yl)-7-oxo-1,6-diazabicyclo[3.2.1]octan-6-yl sulfate] | metastable and transforms to Hydrate 1 | Metastable, suspected hemi-hydrate |
| O=C1N2C[C@@H](CC[C@H]2c2nnco2)N1OS(=O)(=O)[O-].[Na+] [Hydrate 3, sodium (2S,5R)-2-(1,3,4-oxadiazol-2-yl)-7-oxo-1,6-diazabicyclo[3.2.1]octan-6-yl sulfate] | metastable and transform to Hydrate 5 or Hydrate 1 | Metastable, suspected mono-hydrate |
| O=C1N2C[C@@H](CC[C@H]2c2nnco2)N1OS(=O)(=O)[O-].[Na+] [Hydrate 6, sodium (2S,5R)-2-(1,3,4-oxadiazol-2-yl)-7-oxo-1,6-diazabicyclo[3.2.1]octan-6-yl sulfate] | metastable and transform to Hydrate 5 or Hydrate 1 | Metastable, suspected mono-hydrate, |
| O=C1N2C[C@@H](CC[C@H]2c2nnco2)N1OS(=O)(=O)[O-].[Na+] [Hydrate 5, sodium (2S,5R)-2-(1,3,4-oxadiazol-2-yl)-7-oxo-1,6-diazabicyclo[3.2.1]octan-6-yl sulfate] | – | Metastable, di-hydrate |
| O=C1N2C[C@@H](CC[C@H]2c2nnco2)N1OS(=O)(=O)[O-].[Na+] [Hydrate 7, sodium (2S,5R)-2-(1,3,4-oxadiazol-2-yl)-7-oxo-1,6-diazabicyclo[3.2.1]octan-6-yl sulfate] | – | Metastable, only isolated as a mixture |
| O=C1N2C[C@@H](CC[C@H]2c2nnco2)N1OS(=O)(=O)[O-].[Na+] [Hydrate 2, sodium (2S,5R)-2-(1,3,4-oxadiazol-2-yl)-7-oxo-1,6-diazabicyclo[3.2.1]octan-6-yl sulfate] | – | Metastable, hexa-hydrate |
